# Experiments:
# Assay in all cases: ≥ marks a high value that may be exact or a test limit, other limits are often not marked, values filed in µg/mL are converted to µM
# [1] = test system: Xanthomonas axonopodis pv. glycines ISBF 327
# [2] = test system: Escherichia coli ATCC 25922
# [3] = test system: Staphylococcus aureus ATCC 29313
# [4] = test system: Pseudomonas aeruginosa ATCC 27853
# [5] = test system: Enterococcus faecalis CGMCC 1.595
# [6] = test system: Enterococcus faecium CGMCC 1.2334
# [7] = test system: Klebsiella pneumoniae subsp. pneumoniae CGMCC 1.176
# [8] = test system: Escherichia coli AS1.349
# [9] = test system: Pseudomonas aeruginosa CGMCC 1.860
# [10] = test system: Pseudomonas aeruginosa 0108
# [11] = test system: Enterobacter cloacae CGMCC 1.58
# [12] = test system: Staphylococcus epidermidis
# [13] = test system: Bacillus cereus AS1.126
# [14] = test system: Proteus mirabilis CICC 22931
# [15] = test system: Staphylococcus epidermidis CICC 23664
# [16] = test system: Staphylococcus aureus AS1.72
# [17] = test system: Klebsiella pneumoniae ATCC 13883
# [18] = test system: Listeria monocytogenes ATCC 35152
# [19] = test system: Staphylococcus aureus ATCC 25923
# [20] = test system: Staphylococcus aureus BCRC 10780
# [21] = test system: Streptococcus pneumoniae BCRC 10794
# [22] = test system: Staphylococcus aureus ATCC 25023
# [23] = test system: Erwinia amylovora PMV 6076
# [24] = test system: Pseudomonas syringae pv. syringae EPS 94
# [25] = test system: Xanthomonas campestris pv. Vesicatoria 2133-2
smiles,measurement,setting,value
CC[C@H](C)[C@H](NC(=O)[C@@H](NC(=O)[C@H](CCCCN)NC(=O)[C@H](CCCCN)NC(=O)[C@H](CC(C)C)NC(=O)[C@@H](NC(=O)[C@H](CC(N)=O)NC(=O)[C@H](CC(C)C)NC(=O)CN)[C@@H](C)O)C(C)C)C(=O)N[C@@H](CCC(N)=O)C(=O)NCC(=O)N[C@@H](CC(C)C)C(=O)N[C@@H](Cc1cnc[nH]1)C(=O)N[C@@H](CCC(=O)O)C(=O)N[C@H](C(=O)N[C@H](C(=O)N[C@@H](CCCCN)C(=O)N[C@@H](CC(C)C)C(=O)N[C@H](C(=O)N[C@@H](CC(N)=O)C(=O)N[C@@H](CC(N)=O)C(=O)N[C@@H](Cc1cnc[nH]1)C(=O)N[C@@H](C)C(N)=O)C(C)C)[C@@H](C)CC)C(C)C [GLNTLKKVIQGLHEVIKLVNNHA],MIC,[1],2 µM
same,MIC,[2],6 µM
same,MIC,[3],6 µM
same,MIC,[4],50 µM
CC[C@H](C)[C@H](N)C(=O)N[C@@H](CCCCN)C(=O)N[C@@H](CCCCN)C(=O)N[C@@H](Cc1c[nH]c2ccccc12)C(=O)N[C@@H](Cc1c[nH]c2ccccc12)C(=O)N[C@@H](CO)C(=O)N[C@@H](CCCCN)C(=O)N[C@H](C(=O)N[C@@H](CCCCN)C(=O)N[C@@H](CCCCN)C(=O)N[C@@H](CC(C)C)C(=O)N[C@@H](CC(C)C)C(=O)N[C@@H](CCCCN)C(N)=O)[C@@H](C)CC [IKKWWSKIKKLLK],MIC,[5],0.78 µM
same,MIC,[6],1.56 µM
same,MIC,[7],25 µM
same,MIC,[8],3.13 µM
same,MIC,[9],3.13 µM
same,MIC,[10],12.5 µM
same,MIC,[11],0.78 µM
same,MIC,[12],3.12 µM
same,MIC,[13],3.13 µM
same,MIC,[14],6.25 µM
same,MIC,[15],1.56 µM
same,MIC,[16],1.56 µM
CSCC[C@H](NC(=O)[C@H](CCCCN)NC(=O)[C@H](CCCCN)NC(=O)[C@H](CC(N)=O)NC(=O)[C@H](CCCN=C(N)N)NC(=O)[C@H](CS)NC(=O)[C@H](CCCCN)NC(=O)[C@@H](N)CCCCN)C(=O)N[C@@H](CCC(=O)O)C(=O)N[C@H](C(=O)N[C@@H](CO)C(=O)N[C@@H](CCCN=C(N)N)C(N)=O)C(C)C [KKCRNKKMEVSR],MIC,[17],19.9 µM
same,MIC,[18],26.5 µM
same,MIC,[19],16.6 µM
same,MIC,[2],26.5 µM
same,MIC,[4],39.8 µM
CC[C@H](C)[C@H](NC(=O)[C@H](CCSC)NC(C)=O)C(=O)N[C@@H](Cc1cnc[nH]1)C(=O)NCC(=O)N[C@@H](CC(C)C)C(=O)N[C@H](C(=O)N[C@H](C(=O)N[C@@H](CCCN=C(N)N)C(=O)N[C@@H](CCCN=C(N)N)C(N)=O)[C@@H](C)O)C(C)C [MIHGLVTRR],MIC,[20],≥ 92.4 µM
same,MIC,[21],≥ 92.4 µM
CC(C)C[C@H](NC(=O)[C@H](CCCN=C(N)N)NC(=O)[C@H](CC(C)C)NC(=O)[C@H](CC(C)C)NC(=O)[C@H](CC(C)C)NC(=O)[C@H](CC(C)C)NC(=O)[C@H](CC(C)C)NC(=O)[C@H](CCCCN)NC(=O)[C@H](CC(C)C)NC(=O)[C@@H](N)CCCN=C(N)N)C(N)=O [RLKLLLLLRL],MIC,[22],6.4 µM
CC[C@H](C)[C@H](NC(=O)[C@H](CCCCN)NC(=O)[C@H](CCCCN)NC(=O)[C@H](Cc1ccccc1)NC(=O)[C@H](CC(C)C)NC(=O)[C@H](CCCCN)NC(=O)[C@H](CCCCN)NC(=O)[C@H](C)NC(=O)[C@@H]1CCCN1C(=O)CNC(=O)[C@H](C)NC(=O)[C@H](CC(C)C)NC(=O)[C@H](Cc1ccc(O)cc1)NC(=O)[C@H](CCCCN)NC(=O)[C@H](CC(C)C)NC(=O)[C@@H](NC(=O)[C@H](CCCCN)NC(=O)[C@H](CCCCN)NC(=O)[C@H](Cc1ccccc1)NC(=O)[C@H](CC(C)C)NC(=O)[C@H](CCCCN)NC(=O)[C@H](CCCCN)NC(=O)[C@@H](N)CO)[C@@H](C)CC)C(=O)N[C@@H](CC(C)C)C(=O)N[C@@H](CCCCN)C(=O)N[C@@H](Cc1ccc(O)cc1)C(=O)N[C@@H](CC(C)C)C(=O)O [SKKLFKKILKYLAGPAKKLFKKILKYL],MIC,[23],14.1 µM
same,MIC,[24],8.66 µM
same,MIC,[25],14.1 µM

# From DBAASP
